Reference: ChEMBL document CHEMBL1155360, “Structural characteristics of flavanones and flavones from Cudrania tricuspidata for neuraminidase inhibition” (Bioorg Med Chem Lett, 2009)

Assays:
[1] = tested on: Clostridium perfringens; experiment: (§1) Inhibition of Clostridium welchii neuraminidase
[2] = as §1; parameters: species or system Clostridium perfringens
[3] = Noncompetitive inhibition of Clostridium welchii neuraminidase by Dixon plot; parameters: species or system Clostridium perfringens

Row | SMILES | inhibition [1] | IC50 [2] | Ki [3]
1 | CC1(C)C=Cc2c(cc3oc(-c4ccc(O)cc4O)cc(=O)c3c2O)O1 | Dose-dependent effect | 6.01 µM | 
2 | O=c1cc(-c2ccc(O)c(O)c2)oc2cc(O)cc(O)c12 [LUTEOLIN] | Dose-dependent effect | 4.6 µM | 
3 | O=c1cc(-c2ccc(O)cc2)oc2cc(O)cc(O)c12 [APIGENIN] | Dose-dependent effect | 22.1 µM | 
4 | CC(C)=CCc1c(-c2ccc(O)cc2O)oc2cc3c(c(O)c2c1=O)C=CC(C)(C)O3 [CUDRAFLAVONE B] | Dose-dependent effect | 10.1 µM | 10.8 µM
5 | O=c1c2cc(O)c(O)cc2oc2cc(O)c([C@@H]3O[C@H](CO)[C@@H](O)[C@H](O)[C@H]3O)c(O)c12 [MANGIFERIN] | Dose-dependent effect | 11.2 µM | 
6 | O=c1cc(-c2ccc(O)cc2O)oc2cc(O)cc(O)c12 [NORARTOCARPETIN] | Dose-dependent effect | 1.13 µM | 1.96 µM
7 | CC(C)=CCc1cc([C@@H]2CC(=O)c3c(cc(O)c(CC=C(C)C)c3O)O2)c(O)cc1O | Dose-dependent effect | 10.7 µM | 7.16 µM
8 | CC(C)=CC1Oc2cc(O)ccc2-c2oc3cc4c(c(O)c3c(=O)c21)C=CC(C)(C)O4 (stereo not drawn) [CUDRAFLAVONE A] | Dose-dependent effect | 29 µM | 44.4 µM
9 | O=C1C[C@@H](c2ccc(O)cc2)Oc2cc(O)cc(O)c21 [NARINGENIN] | Dose-dependent effect | 57.9 µM | 
10 | O=C1C[C@@H](c2ccc(O)c(O)c2)Oc2cc(O)cc(O)c21 [ERIODICTYOL] | Dose-dependent effect | 16 µM | 
11 | O=C1C[C@@H](c2ccc(O)cc2O)Oc2cc(O)cc(O)c21 | Dose-dependent effect | 8.14 µM | 7.2 µM
12 | CC(C)=CCc1c(O)cc2c(c1O)C(=O)C[C@@H](c1cc3c(cc1O)OC(C)(C)C=C3)O2 [CUDRAFLAVANONE A] | Dose-dependent effect | 1.53 µM | 2.01 µM
13 | CC(C)(O)CCc1c(O)cc(O)c2c1O[C@H](c1cc3c(cc1O)OC(C)(C)C=C3)CC2=O | Dose-dependent effect | 0.38 µM | 0.19 µM
